Experimental data reported in ChEMBL document CHEMBL3393036, “Tetra-substituted pyridinylimidazoles as dual inhibitors of p38α mitogen-activated protein kinase and c-Jun N-terminal kinase 3 for potential treatment of neurodegenerative diseases” (J Med Chem, 2015).

The molecules below were run against Mitogen-activated protein kinase 1 (Homo sapiens) (UniProt P28482) (assay: Inhibition of MAPK1 (ERK2) (unknown origin) at 5.5 uM by Caliper Mobility Shift Assay).

Row | Structure (SMILES) | inhibition
1 | COC(Cn1c(SC2CCC(C(=O)O)CC2O)nc(-c2ccc(F)cc2)c1-c1ccnc(NC(C)=O)c1)OC (configuration not stated) | < 50%
2 | CC(=O)Nc1cc(-c2c(-c3ccc(F)cc3)nc(S/C=C\C(=O)O)n2C2CCCCC2)ccn1 | < 50%

These molecules were tested against Fibroblast growth factor receptor 1 (Homo sapiens) (UniProt P11362) (assay: Inhibition of FGFR1 (unknown origin) at 5.5 uM by Caliper Mobility Shift Assay).

Row | Structure (SMILES) | inhibition
3 | COC(Cn1c(SC2CCC(C(=O)O)CC2O)nc(-c2ccc(F)cc2)c1-c1ccnc(NC(C)=O)c1)OC (configuration not stated) | < 50%
4 | CC(=O)Nc1cc(-c2c(-c3ccc(F)cc3)nc(S/C=C\C(=O)O)n2C2CCCCC2)ccn1 | < 50%

Each molecule was assayed against T1, Activin receptor type-1 (Homo sapiens) (UniProt Q04771) (assay: Inhibition of ACVR1 (ALK2) (unknown origin) at 5.5 uM by Caliper Mobility Shift Assay).
T1 sequence (whole entry): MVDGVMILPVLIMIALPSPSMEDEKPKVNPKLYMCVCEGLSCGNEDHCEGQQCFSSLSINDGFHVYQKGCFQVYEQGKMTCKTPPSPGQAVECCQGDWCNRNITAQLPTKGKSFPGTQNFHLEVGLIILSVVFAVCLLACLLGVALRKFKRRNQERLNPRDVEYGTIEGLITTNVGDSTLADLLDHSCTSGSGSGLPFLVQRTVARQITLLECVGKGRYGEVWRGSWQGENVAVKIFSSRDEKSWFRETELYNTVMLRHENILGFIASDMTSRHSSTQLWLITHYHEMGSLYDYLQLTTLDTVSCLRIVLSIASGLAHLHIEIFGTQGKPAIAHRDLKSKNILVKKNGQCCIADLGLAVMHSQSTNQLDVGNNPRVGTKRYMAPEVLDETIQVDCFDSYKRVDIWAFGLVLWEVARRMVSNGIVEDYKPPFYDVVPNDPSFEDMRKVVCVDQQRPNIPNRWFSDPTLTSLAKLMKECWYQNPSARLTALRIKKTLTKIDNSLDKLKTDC

Row | Structure (SMILES) | inhibition
5 | COC(Cn1c(SC2CCC(C(=O)O)CC2O)nc(-c2ccc(F)cc2)c1-c1ccnc(NC(C)=O)c1)OC (configuration not stated) | < 50%
6 | CC(=O)Nc1cc(-c2c(-c3ccc(F)cc3)nc(S/C=C\C(=O)O)n2C2CCCCC2)ccn1 | < 50%

The molecules below were run against T2, Aurora kinase A (Homo sapiens) (UniProt O14965) (assay: Inhibition of AURKA (unknown origin) at 5.5 uM by Caliper Mobility Shift Assay).
T2 sequence (whole entry): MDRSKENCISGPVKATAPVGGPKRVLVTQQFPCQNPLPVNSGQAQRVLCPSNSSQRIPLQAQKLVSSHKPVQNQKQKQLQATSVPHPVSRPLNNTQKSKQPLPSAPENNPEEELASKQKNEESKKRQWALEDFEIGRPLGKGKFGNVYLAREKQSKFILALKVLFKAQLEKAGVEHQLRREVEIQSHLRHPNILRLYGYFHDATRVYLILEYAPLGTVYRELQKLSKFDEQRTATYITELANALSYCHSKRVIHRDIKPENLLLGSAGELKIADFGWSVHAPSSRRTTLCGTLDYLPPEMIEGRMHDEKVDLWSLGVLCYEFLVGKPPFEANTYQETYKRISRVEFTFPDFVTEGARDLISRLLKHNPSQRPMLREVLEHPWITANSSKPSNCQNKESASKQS

Row | Structure (SMILES) | inhibition
7 | COC(Cn1c(SC2CCC(C(=O)O)CC2O)nc(-c2ccc(F)cc2)c1-c1ccnc(NC(C)=O)c1)OC (configuration not stated) | < 50%
8 | CC(=O)Nc1cc(-c2c(-c3ccc(F)cc3)nc(S/C=C\C(=O)O)n2C2CCCCC2)ccn1 | < 50%

What follows are molecules tested against Receptor tyrosine-protein kinase erbB-4 (Homo sapiens) (UniProt Q15303) (assay: Inhibition of ERBB4 (HER4) (unknown origin) at 5.5 uM by Caliper Mobility Shift Assay).
Sequence of Receptor tyrosine-protein kinase erbB-4 (Homo sapiens) (Q15303 whole entry): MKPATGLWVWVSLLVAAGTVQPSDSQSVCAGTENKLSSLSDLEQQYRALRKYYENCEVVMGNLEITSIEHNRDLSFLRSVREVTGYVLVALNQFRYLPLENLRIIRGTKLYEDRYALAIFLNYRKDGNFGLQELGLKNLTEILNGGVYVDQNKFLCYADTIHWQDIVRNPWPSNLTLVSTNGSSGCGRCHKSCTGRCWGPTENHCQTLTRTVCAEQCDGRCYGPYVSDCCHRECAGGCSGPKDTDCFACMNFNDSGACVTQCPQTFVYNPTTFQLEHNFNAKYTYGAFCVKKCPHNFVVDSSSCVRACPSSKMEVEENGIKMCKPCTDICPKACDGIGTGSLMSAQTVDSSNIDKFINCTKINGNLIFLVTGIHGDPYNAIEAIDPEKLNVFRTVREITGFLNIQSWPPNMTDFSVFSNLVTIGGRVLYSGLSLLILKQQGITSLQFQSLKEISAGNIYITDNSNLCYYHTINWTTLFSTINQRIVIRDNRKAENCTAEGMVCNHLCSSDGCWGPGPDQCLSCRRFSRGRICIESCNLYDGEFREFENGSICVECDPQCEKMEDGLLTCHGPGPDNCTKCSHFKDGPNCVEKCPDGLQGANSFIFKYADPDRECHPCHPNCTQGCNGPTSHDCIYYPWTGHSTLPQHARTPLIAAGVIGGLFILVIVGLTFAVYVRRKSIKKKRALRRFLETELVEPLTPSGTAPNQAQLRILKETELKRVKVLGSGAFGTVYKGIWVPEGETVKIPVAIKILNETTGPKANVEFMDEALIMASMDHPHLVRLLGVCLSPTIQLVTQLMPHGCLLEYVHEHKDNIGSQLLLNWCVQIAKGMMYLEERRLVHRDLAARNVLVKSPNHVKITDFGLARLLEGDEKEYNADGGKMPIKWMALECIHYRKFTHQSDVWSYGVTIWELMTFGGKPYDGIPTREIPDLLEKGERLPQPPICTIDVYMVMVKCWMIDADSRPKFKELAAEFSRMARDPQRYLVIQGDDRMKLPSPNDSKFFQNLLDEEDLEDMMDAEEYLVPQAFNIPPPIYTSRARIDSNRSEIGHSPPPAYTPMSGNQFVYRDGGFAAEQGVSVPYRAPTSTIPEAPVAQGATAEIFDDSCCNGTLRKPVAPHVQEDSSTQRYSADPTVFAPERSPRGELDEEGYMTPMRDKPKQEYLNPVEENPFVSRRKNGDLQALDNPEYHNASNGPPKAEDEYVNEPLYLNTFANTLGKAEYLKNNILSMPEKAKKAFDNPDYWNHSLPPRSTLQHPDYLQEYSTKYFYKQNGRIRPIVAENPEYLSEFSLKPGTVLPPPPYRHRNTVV

Row | Structure (SMILES) | inhibition
9 | COC(Cn1c(SC2CCC(C(=O)O)CC2O)nc(-c2ccc(F)cc2)c1-c1ccnc(NC(C)=O)c1)OC (configuration not stated) | < 50%
10 | CC(=O)Nc1cc(-c2c(-c3ccc(F)cc3)nc(S/C=C\C(=O)O)n2C2CCCCC2)ccn1 | < 50%

The molecules below were run against Mitogen-activated protein kinase 14 (Homo sapiens, UniProt Q16539) (assay: Inhibition of p38a (unknown origin) at 5.5 uM by Caliper Mobility Shift Assay).

Row | Structure (SMILES) | inhibition
11 | COC(Cn1c(SC2CCC(C(=O)O)CC2O)nc(-c2ccc(F)cc2)c1-c1ccnc(NC(C)=O)c1)OC (configuration not stated) | < 50%
12 | CC(=O)Nc1cc(-c2c(-c3ccc(F)cc3)nc(S/C=C\C(=O)O)n2C2CCCCC2)ccn1 | < 50%

What follows are molecules tested against MAP kinase-interacting serine/threonine-protein kinase 1 (Homo sapiens) (UniProt Q9BUB5) (assay: Inhibition of MKNK1 (unknown origin) at 5.5 uM by Caliper Mobility Shift Assay).

Row | Structure (SMILES) | inhibition
13 | COC(Cn1c(SC2CCC(C(=O)O)CC2O)nc(-c2ccc(F)cc2)c1-c1ccnc(NC(C)=O)c1)OC (configuration not stated) | < 50%
14 | CC(=O)Nc1cc(-c2c(-c3ccc(F)cc3)nc(S/C=C\C(=O)O)n2C2CCCCC2)ccn1 | < 50%

The molecules below were run against T3, MAP kinase-activated protein kinase 5 (Homo sapiens) (UniProt Q8IW41) (assay: Inhibition of MAPKAPK5 (MK5) (unknown origin) at 5.5 uM by Caliper Mobility Shift Assay).
T3 sequence (whole entry): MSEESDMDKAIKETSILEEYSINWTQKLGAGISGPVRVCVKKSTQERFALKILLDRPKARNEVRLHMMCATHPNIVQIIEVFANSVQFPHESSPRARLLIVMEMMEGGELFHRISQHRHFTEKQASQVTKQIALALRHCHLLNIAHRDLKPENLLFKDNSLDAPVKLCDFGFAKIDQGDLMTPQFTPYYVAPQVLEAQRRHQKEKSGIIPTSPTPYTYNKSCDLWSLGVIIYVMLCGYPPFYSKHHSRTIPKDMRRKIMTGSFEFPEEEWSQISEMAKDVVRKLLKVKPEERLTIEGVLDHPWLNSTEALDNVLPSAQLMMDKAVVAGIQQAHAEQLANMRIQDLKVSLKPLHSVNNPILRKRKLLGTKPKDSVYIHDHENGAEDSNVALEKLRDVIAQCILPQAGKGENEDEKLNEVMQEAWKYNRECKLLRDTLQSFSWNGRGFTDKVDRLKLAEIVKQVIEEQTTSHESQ

Row | Structure (SMILES) | inhibition
15 | COC(Cn1c(SC2CCC(C(=O)O)CC2O)nc(-c2ccc(F)cc2)c1-c1ccnc(NC(C)=O)c1)OC (configuration not stated) | < 50%
16 | CC(=O)Nc1cc(-c2c(-c3ccc(F)cc3)nc(S/C=C\C(=O)O)n2C2CCCCC2)ccn1 | < 50%

These molecules were tested against T4, Interleukin-1 receptor-associated kinase 4 (Homo sapiens) (UniProt Q9NWZ3) (assay: Inhibition of IRAK4 (unknown origin) at 5.5 uM by Caliper Mobility Shift Assay).
T4 sequence (whole entry): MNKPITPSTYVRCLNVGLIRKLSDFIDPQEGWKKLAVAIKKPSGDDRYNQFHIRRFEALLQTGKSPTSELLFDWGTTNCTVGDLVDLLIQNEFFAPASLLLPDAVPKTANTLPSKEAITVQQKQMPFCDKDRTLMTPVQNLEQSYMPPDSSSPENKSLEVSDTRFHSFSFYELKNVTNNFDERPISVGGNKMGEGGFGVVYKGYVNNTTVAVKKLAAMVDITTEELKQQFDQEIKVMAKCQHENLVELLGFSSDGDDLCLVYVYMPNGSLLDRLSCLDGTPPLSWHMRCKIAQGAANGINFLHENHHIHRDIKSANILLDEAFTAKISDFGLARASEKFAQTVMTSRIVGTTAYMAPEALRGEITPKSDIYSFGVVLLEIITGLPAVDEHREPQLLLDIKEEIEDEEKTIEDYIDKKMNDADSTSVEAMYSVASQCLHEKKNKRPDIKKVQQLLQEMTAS

Row | Structure (SMILES) | inhibition
17 | COC(Cn1c(SC2CCC(C(=O)O)CC2O)nc(-c2ccc(F)cc2)c1-c1ccnc(NC(C)=O)c1)OC (configuration not stated) | < 50%
18 | CC(=O)Nc1cc(-c2c(-c3ccc(F)cc3)nc(S/C=C\C(=O)O)n2C2CCCCC2)ccn1 | < 50%

These molecules were tested against Mitogen-activated protein kinase 10 (Homo sapiens, UniProt P53779) (assay: Inhibition of JNK3 (unknown origin) assessed as phosphorylation of ATF-2 by ELISA).

Row | Structure (SMILES) | IC50
19 | COC(Cn1c(SC2CCC(C(=O)O)CC2O)nc(-c2ccc(F)cc2)c1-c1ccnc(NC(C)=O)c1)OC (configuration not stated) | 2010 nM
20 | CC(=O)Nc1cc(-c2c(-c3ccc(F)cc3)nc(S/C=C\C(=O)O)n2C2CCCCC2)ccn1 | 133 nM

The molecules below were run against Epidermal growth factor receptor (Homo sapiens) (UniProt P00533) (assay: Inhibition of EGFR (HER1) (unknown origin) at 5.5 uM by Caliper Mobility Shift Assay).
Sequence of Epidermal growth factor receptor (Homo sapiens) (P00533 whole entry): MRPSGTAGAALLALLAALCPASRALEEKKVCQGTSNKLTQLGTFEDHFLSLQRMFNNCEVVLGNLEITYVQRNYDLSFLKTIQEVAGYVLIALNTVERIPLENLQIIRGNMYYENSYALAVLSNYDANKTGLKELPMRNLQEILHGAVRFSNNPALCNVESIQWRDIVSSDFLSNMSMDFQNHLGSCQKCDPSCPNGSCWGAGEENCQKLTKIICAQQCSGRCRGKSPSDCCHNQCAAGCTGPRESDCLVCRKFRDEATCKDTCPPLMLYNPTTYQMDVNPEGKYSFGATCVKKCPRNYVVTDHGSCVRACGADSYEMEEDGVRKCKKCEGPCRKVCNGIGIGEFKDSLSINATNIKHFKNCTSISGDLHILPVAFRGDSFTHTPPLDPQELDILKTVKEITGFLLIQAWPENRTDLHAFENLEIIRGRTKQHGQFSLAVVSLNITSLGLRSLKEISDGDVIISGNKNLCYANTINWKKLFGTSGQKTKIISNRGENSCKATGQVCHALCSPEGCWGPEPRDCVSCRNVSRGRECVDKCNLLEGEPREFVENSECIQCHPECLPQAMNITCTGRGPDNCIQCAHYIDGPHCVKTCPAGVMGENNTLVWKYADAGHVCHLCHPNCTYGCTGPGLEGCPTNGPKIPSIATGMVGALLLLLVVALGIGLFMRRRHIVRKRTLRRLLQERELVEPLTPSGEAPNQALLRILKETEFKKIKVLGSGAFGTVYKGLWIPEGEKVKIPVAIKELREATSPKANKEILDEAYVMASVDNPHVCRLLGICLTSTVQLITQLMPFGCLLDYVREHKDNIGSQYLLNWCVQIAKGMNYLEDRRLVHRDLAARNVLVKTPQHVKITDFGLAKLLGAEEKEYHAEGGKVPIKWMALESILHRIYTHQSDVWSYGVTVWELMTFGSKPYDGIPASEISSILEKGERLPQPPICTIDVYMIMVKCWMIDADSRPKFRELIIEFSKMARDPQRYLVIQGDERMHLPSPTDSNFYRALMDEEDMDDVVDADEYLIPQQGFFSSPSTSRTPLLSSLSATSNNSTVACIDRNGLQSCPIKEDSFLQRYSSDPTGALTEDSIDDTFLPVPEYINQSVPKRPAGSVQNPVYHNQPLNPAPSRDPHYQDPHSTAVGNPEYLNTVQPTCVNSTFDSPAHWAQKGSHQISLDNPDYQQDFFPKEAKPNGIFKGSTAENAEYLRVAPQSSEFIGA

Row | Structure (SMILES) | inhibition
21 | COC(Cn1c(SC2CCC(C(=O)O)CC2O)nc(-c2ccc(F)cc2)c1-c1ccnc(NC(C)=O)c1)OC (configuration not stated) | < 50%
22 | CC(=O)Nc1cc(-c2c(-c3ccc(F)cc3)nc(S/C=C\C(=O)O)n2C2CCCCC2)ccn1 | < 50%

What follows are molecules tested against Insulin receptor (Homo sapiens) (UniProt P06213) (assay: Inhibition of INSR (unknown origin) at 5.5 uM by Caliper Mobility Shift Assay).
Sequence of Insulin receptor (Homo sapiens) (P06213 28-758 limits assumed): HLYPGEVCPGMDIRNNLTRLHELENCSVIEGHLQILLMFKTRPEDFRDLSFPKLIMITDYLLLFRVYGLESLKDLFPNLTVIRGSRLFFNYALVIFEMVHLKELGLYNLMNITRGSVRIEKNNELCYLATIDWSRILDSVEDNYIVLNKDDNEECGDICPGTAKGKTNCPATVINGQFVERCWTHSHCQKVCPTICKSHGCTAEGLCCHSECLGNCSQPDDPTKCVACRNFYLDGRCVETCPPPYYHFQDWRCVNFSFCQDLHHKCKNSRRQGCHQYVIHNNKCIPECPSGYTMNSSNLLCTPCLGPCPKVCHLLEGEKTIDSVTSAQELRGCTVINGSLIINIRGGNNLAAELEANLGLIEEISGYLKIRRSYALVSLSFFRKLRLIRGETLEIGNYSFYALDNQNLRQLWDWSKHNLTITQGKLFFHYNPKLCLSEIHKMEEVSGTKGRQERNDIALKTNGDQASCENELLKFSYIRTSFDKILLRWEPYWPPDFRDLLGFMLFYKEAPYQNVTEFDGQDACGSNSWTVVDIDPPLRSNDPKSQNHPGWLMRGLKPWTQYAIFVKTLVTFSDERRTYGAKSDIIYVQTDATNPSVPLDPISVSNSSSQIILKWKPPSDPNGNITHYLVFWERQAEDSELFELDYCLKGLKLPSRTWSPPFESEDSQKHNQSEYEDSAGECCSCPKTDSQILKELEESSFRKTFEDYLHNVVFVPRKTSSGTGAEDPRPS
Sequence of Insulin receptor (Homo sapiens) (P06213 763-1382 limits assumed): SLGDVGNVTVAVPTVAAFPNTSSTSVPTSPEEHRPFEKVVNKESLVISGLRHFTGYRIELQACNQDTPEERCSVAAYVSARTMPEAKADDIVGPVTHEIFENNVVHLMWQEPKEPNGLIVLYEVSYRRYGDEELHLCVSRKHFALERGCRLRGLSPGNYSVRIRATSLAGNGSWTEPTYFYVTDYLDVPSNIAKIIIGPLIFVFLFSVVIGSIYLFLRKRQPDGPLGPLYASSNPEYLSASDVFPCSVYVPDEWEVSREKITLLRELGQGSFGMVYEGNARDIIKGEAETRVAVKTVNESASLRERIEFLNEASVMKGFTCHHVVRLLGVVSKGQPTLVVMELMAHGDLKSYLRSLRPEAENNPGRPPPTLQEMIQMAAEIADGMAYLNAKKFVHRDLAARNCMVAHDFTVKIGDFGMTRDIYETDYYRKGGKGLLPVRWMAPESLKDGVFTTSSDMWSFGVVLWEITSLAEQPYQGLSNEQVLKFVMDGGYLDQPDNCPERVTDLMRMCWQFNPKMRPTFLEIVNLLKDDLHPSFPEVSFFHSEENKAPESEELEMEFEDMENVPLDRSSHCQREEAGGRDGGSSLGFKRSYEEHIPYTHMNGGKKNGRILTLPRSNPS

Row | Structure (SMILES) | inhibition
23 | COC(Cn1c(SC2CCC(C(=O)O)CC2O)nc(-c2ccc(F)cc2)c1-c1ccnc(NC(C)=O)c1)OC (configuration not stated) | < 50%
24 | CC(=O)Nc1cc(-c2c(-c3ccc(F)cc3)nc(S/C=C\C(=O)O)n2C2CCCCC2)ccn1 | < 50%

Each molecule was assayed against Tyrosine-protein kinase CSK (Homo sapiens) (UniProt P41240) (assay: Inhibition of CSK (unknown origin) at 5.5 uM by Caliper Mobility Shift Assay).
Sequence of Tyrosine-protein kinase CSK (Homo sapiens) (P41240 2-450 limits assumed): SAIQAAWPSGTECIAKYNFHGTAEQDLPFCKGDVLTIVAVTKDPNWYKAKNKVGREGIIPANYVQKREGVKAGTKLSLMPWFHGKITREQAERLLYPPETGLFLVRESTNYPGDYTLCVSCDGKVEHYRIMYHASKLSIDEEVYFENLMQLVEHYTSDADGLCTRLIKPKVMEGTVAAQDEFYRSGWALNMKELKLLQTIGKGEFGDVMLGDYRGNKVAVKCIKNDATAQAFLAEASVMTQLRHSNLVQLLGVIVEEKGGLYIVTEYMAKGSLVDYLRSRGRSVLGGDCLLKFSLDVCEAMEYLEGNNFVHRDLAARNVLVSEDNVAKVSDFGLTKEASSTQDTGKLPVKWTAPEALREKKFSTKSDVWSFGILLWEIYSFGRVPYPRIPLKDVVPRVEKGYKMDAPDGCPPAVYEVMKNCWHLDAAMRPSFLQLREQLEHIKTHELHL

Row | Structure (SMILES) | inhibition
25 | COC(Cn1c(SC2CCC(C(=O)O)CC2O)nc(-c2ccc(F)cc2)c1-c1ccnc(NC(C)=O)c1)OC (configuration not stated) | < 50%
26 | CC(=O)Nc1cc(-c2c(-c3ccc(F)cc3)nc(S/C=C\C(=O)O)n2C2CCCCC2)ccn1 | < 50%

Each molecule was assayed against Hepatocyte growth factor receptor (Homo sapiens) (UniProt P08581) (assay: Inhibition of MET (unknown origin) at 5.5 uM by Caliper Mobility Shift Assay).

Row | Structure (SMILES) | inhibition
27 | COC(Cn1c(SC2CCC(C(=O)O)CC2O)nc(-c2ccc(F)cc2)c1-c1ccnc(NC(C)=O)c1)OC (configuration not stated) | < 50%
28 | CC(=O)Nc1cc(-c2c(-c3ccc(F)cc3)nc(S/C=C\C(=O)O)n2C2CCCCC2)ccn1 | < 50%

What follows are molecules tested against Ribosomal protein S6 kinase beta-2 (Homo sapiens) (UniProt Q9UBS0) (assay: Inhibition of S6K (unknown origin) at 5.5 uM by Caliper Mobility Shift Assay).
Sequence of Ribosomal protein S6 kinase beta-2 (Homo sapiens) (Q9UBS0 whole entry): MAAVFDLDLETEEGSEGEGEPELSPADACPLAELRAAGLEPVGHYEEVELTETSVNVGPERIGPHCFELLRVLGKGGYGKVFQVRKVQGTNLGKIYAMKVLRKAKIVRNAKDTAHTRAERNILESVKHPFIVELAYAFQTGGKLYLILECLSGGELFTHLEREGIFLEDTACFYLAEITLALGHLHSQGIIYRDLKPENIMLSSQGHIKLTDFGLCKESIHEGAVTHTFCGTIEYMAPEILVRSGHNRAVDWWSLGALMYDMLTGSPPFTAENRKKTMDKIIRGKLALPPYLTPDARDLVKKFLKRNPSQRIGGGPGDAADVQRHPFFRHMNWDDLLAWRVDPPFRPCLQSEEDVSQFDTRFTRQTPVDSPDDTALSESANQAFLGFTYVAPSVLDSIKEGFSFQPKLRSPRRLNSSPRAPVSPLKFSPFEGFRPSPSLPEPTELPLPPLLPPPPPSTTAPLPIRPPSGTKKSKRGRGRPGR

Row | Structure (SMILES) | inhibition
29 | COC(Cn1c(SC2CCC(C(=O)O)CC2O)nc(-c2ccc(F)cc2)c1-c1ccnc(NC(C)=O)c1)OC (configuration not stated) | < 50%
30 | CC(=O)Nc1cc(-c2c(-c3ccc(F)cc3)nc(S/C=C\C(=O)O)n2C2CCCCC2)ccn1 | < 50%

These molecules were tested against Tyrosine-protein kinase ABL1 (Homo sapiens) (UniProt P00519) (assay: Inhibition of ABL1 (unknown origin) at 5.5 uM by Caliper Mobility Shift Assay).

Row | Structure (SMILES) | inhibition
31 | COC(Cn1c(SC2CCC(C(=O)O)CC2O)nc(-c2ccc(F)cc2)c1-c1ccnc(NC(C)=O)c1)OC (configuration not stated) | < 50%
32 | CC(=O)Nc1cc(-c2c(-c3ccc(F)cc3)nc(S/C=C\C(=O)O)n2C2CCCCC2)ccn1 | < 50%
